From patent US10555919B2, “Melatonin in autoimmune disease” (The Brigham and Women's Hopsital, Inc., priority 2014, dated 2020)

Key:
[1] = test system: Tr1 cells; experiment: In vitro mouse Tr1 cell differentiation; assay type: cell-based; settings: agomelatine 20 ng/ml, CGP 52608 20 ng/ml
Procedure: (§1) Naive CD4+ T cells (CD4+CD44loCD62LhiCD25−) were from the spleen and lymph node of C57BL/6 wild-type, MTNR1A−, NFIL3−, REV-ERBα, C/EBPα-deficient or RORα-deficient mice using magnetic beads (CD4+ T cell isolation kit, Miltenyi Biotec). All experiments were started between 7 and 9 am. Cells were activated with plate-bound anti-CD3 (2 μg/ml; 14-0031-86; eBioscience) and anti-CD28 (2 μg/ml; 16-0281-86; eBioscience). Mouse IL-27 (30 ng/ml; 34-8271; Biolegend) was added for the generation of Tr1 cells. IL-6 (30 ng/ml; 406-ML-025; R&D Systems), TGF-β1 (15 ng/ml; 130-095-067; Miltenyi Biotec), anti-IL-4 (2.5 μg/ml; C17.8; Biolegend) and anti-IFN-γ (5 μg/ml; XMG1.2; Biolegend) were added for the generation of Th17 cells. Recombinant mouse IL-23 (30 ng/ml; 1887-ML-010; R&D Systems) was added at day 2. For some experiments IL-6 and […] (10 ng/ml; 401-ML-025; R&D Systems) or TGF-β1 and IL-21 (100 ng/ml; 594-ML-010; R&D Systems) were used in instead for Th17 cell differentiation. IL-12 (30 ng/ml; 419-ML-010; R&D Systems) and anti-IL-4 (2.5 μg/ml; C17.8; Biolegend) were used for the generation of Th1 cells. IL-4 (30 ng/ml; 404-ML-010; R&D Systems) and anti-IFN-γ (5 μg/ml; XMG1.2; Biolegend) was added for the generation of Th2 cells. TGF-β1 (15 ng/ml; 130-095-067; Miltenyi Biotec) was used for the generation of Foxp3+ Tregs. Melatonin (Gador, Argentina), Agomelatin, and CGP-52608 (Sigma-Aldrich) were added at the start of the cultures and at day 2, at a final concentration of 2-20 ng/ml.

[2] = test system: murine Th17 cell differentiation; experiment: In vitro mouse Th17 cell differentiation; assay type: cell-based; settings: for differentiation of Th17 cells (rorc, IL-17, IL-23 receptor): wild type, melatonin 2 ng/ml, agomelatine 20 ng/ml, ramelteon 10 ng/ml, CGP 52608 20 ng/ml
Procedure: For intracellular cytokine staining, cells were stimulated for 4 h at 37° C. with phorbol 12-myristate 13-acetate (50 ng/ml; Sigma), ionomycin (1 μg/ml; Sigma) and monensin (GolgiStop; 1 μg/ml; BD Biosciences). After being stained for surface markers, cells were fixed and made permeable according to the manufacturer's instructions (BD Biosciences). All antibodies against cytokines were from Biolegend. All experiments were started at the same time (8-9 am). Data were collected with a LSR II or FACSAria (BD Biosciences), then were analyzed with FlowJo software (Treestar).
as §1
(§2) Secreted cytokines were measured in tissue culture supernatants after 72-96 hs by enzyme-linked immunosorbent assay as previously described (Farez et al., 2009).

[3] = target: T1, MT2 melatonin receptor (Homo sapiens, UniProt P49286); settings: nonselective ligand; cited from earlier work
T1 sequence (P49286 1-362): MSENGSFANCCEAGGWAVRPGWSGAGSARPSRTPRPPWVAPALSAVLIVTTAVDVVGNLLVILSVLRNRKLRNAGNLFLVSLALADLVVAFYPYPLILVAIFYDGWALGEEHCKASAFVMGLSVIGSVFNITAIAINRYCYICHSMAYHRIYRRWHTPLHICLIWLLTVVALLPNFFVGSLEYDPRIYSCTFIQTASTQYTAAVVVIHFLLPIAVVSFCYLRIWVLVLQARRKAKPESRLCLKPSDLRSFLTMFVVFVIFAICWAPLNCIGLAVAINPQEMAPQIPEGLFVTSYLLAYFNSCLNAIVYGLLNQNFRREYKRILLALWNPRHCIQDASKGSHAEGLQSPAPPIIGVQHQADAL

[4] = test system: human Th1 cells; experiment: In vitro human Th1 differentiation; assay type: cell-based; settings: 500 ng/ml; IL-12
Procedure: (§3) In vitro human T cell differentiation. For Th17 differentiation, naive CD45RA+ CD4+ T cells were isolated from PBMCs with magnetic beads (Naive Human CD4+ T Cell Isolation Kit II, Miltenyi Biotec) and seeded at a density of 5×10^5 cells/ml in 24-well plates coated with anti-CD3 and (2 μg/ml) and soluble anti-CD28 and cultured in the presence of the following cytokines IL-1β (25 ng/ml), IL-6 (50 ng/ml), and TGF-β1 (2 ng/ml) and neutralizing antibodies to IFN-g ([…]) and IL-4 (10 microgram/ml). Alternatively, Th17 cells were differentiated by using IL-1β (25 ng/ml), IL-6 (50 ng/ml), and IL-23 (50 ng/ml) and neutralizing antibodies to IFN-g ([…]) and IL-4 (10 microgram/ml). For Th1 differentiation naïve CD4+T cells are cultured in the presence of IL-12 (20 ng/ml) and anti-IL-4 (10 μg/ml).

[5] = test system: human CD4+ T cells activated under Tr1 polarizing conditions; experiment: In vitro human Tr1 differentiation; assay type: cell-based; settings: 500 ng/ml
Excerpt: We then studied the effects of melatonin on human CD4^+ T cells. In addition, we also analyzed the effects of agomelatine, which activates melatonin-dependent signaling (Hickie and Rogers, 2011). Based on the effects of melatonin administration on T cells during EAE, we focused our studies on human Th17 and Tr1 cells. Melatonin and agomelatine reduced the production of IL-17, RORC and IL17A expression by human CD4^+ T cells activated under Th17 polarizing conditions (FIGS. 3a-c and FIG. 8), no effect was detected on the differentiation of human Th1 cells (FIGS. 3d-f). Concomitantly, melatonin and agomelatine increased IL10 expression.

[6] = test system: nr1d1 reporter-transfected HEK293 cells; experiment: nr1d1 promoter luciferase reporter assay; assay type: cell-based; settings: nr1d1 promoter controls luciferase expression
Excerpt: The IL-10 promoter reporter and C-Maf and AhR vectors were previously described (Apetoh et al., 2010), vector expressing ROR-α were purchased from PlasmID at Harvard Medical School. Vectors coding for C/EBPα (44627) and Bmal reporter (46824) were purchased from Addgene. The retrovirus used for nfil3 overexpression in T cells was graciously provided by Laura Hooper (UT Southwestern, TX, USA). The retrovirus used for nr1d1 overexpression in T cells was graciously provided by Bart Staels (Institut Pasteur, Lille, France, […]). The nr1d1 promoter reporter was graciously provide by Vincent Laudent (Ecole Normale Supérieure, Lyon, France).
HEK293 cells were grown in DMEM supplemented with 10% FBS and were transfected with FuGENE HD transfection reagent and 2 μg of each plasmids according the manufacturer's instructions (Roche). Firefly and renilla luciferase activity was analyzed 48 h after transfection and 24 h after treatment with a Dual Luciferase Assay kit (Promega).

[7] = test system: human CD4+ T cells activated under Th17 polarizing conditions; experiment: In vitro human Th17 differentiation; assay type: cell-based; settings: 500 ng/ml
Procedure: as §3, §2

For `C=CCN1C(=O)CS/C1=N/NC(=S)NC` [CGP 52608], the Tr1 cell differentiation [1] was “boosted” and the “differentiation of Th17 cells (rorc, IL-17, IL-23 receptor)” value (“differentiation of Th17 cells” below) [2] was “boosted”.
For `CC(=O)NCCc1c(Cc2ccccc2)[nH]c2ccccc12` [Luzindole, N-[2-(2-benzyl-1H-indol-3-yl)ethyl]acetamide], the “higher affinity for the MT2 melatonin receptor” value [3] is given as 15- to 25 fold.
With `CCOC(=O)N1CCC(CN(Cc2ccc(Cl)cc2)Cc2ccc([N+](=O)[O-])s2)C1` (stereo not drawn) [SR9009] the “differentiation into Th17 cells (RT-PCR)” value ([2]; SR9009 5 micromolar, 72 hr) was “suppresses”.
For `COc1ccc2cccc(CCNC(C)=O)c2c1` [agomelatine, N-[2-(7-methoxynaphthalen-1-yl)ethyl]acetamide], the “differentiation of human Th1 cells” value [4] was “no effect”, the IL-10 production [5] was “increased” and the Tr1 cell differentiation [1] was “boosted”. For the same compound, the luciferase activity [6] was “decreased”, the “differentiation of Th17 cells” value [2] was “suppressed” and the “production of IL-17, RORC and IL17A expression” value [7] was “reduced”. For the same compound, the IL10 expression ([7]; Th17 polarizing conditions) was “increased”.
For `CCC(=O)NCC[C@@H]1CCc2ccc3c(c21)CCO3` [ramelteon, (S)—N-[2-(1,6,7,8-tetrahydro-2H-indeno[5,4-b]furan-8-yl)ethyl]propionamide], the “differentiation of Th17 cells” value [2] was “suppressed”.
